Experimental data reported in US9155289B2, “Methods concerning PPAR delta and antagonists thereof” (University Court of the University of Dundee, priority 2008, dated 2015).
Each block holds one compound with its values, some of them ahead of it.

Key:
[1] = system: human PPARδ; settings: mouse, in vivo
Procedure: FIG. 2(a) illustrates Western blot analyses of 10 μg of total protein extract of transgenic mice fed I3C or control diet in an experiment in which PPARδ expression was induced in mice harbouring CYP1A1-controlled PPARδ by oral administration of indole-3-carbinol (I3C) for seven days (top); and an experiment in which PPARδ was expressed by feeding of I3C and activated by additional administration of the specific PPARδ ligand GW-501516 (GW) for 25 days (bottom); FIG. 2(b) is a close-up photograph of the macroscopic phenotype of mice receiving both I3C and GW-501516 administration; FIG. 2(c) is a photograph of standard H&E histology stains prepared from abdominal skin of the animals shown in FIG. 2(a);
FIG. 3 illustrates experimental results from arising from the inducible expression of PPARδ in mouse epidermis. FIG. 3(a) Cis-regulatory elements in the rat CYP1A1 promoter used to drive inducible expression of human PPARδ. Upper panel: Map of the sebaceous-specific G/C-box element and the AHR-responsive DXE/XRE cluster in the cyp1A1 promoter as well as the human K5 promoter. Bottom panel: ClustalW alignment of promoters identified by a BLAST search using the 20 bp G/C element of the Cyp1A1 promoter. All of the genes shown were found in the top 10% percentile of all transcripts expressed in human sebaceous glands (GDS3215 at the NCBI GEO website www.ncbi.nlm.nih.gov/geo/). FIG. 3(b) illustrates immunohistochemistry using anti-PPARδ of mice transgenic for human PPARδ driven by the rat CYP1A promoter (PPARδ TG), as well as wild type mice. Magnification 200×; FIG. 3(c) illustrates immunohistochemistry of abdominal skin samples from PPARδ transgenic mice taken at the indicated times after initiation of PPARδ activation mediated by administration of the synthetic ligand GW501516 in the chow; FIG. 3(d) illustrates PPARδ immunohistochemistry 48 h after topical application of indole-3-carbinole (I3C) to the skin of PPARδ transgenic mice at 200× (left) and 400× (right) magnification; […]

[2] = system: PPARδ transgenic mice; assay: Skin phenotype in PPARδ transgenic mice after PPARδ activation; type: in vivo, mouse
Procedure: FIG. 5. Skin phenotype in PPARδ transgenic mice twenty days after beginning of GW501516 (GW) administration. (FIGS. 5a-5c) Gross morphology, (FIGS. 5d-5e) H&E histology of control mice not treated with GW (5d), or fourteen days after induction (5e-5g). Magnification 200× (5d,5e) or 400× (5f). (5g) Immunostaining for Ki67 of skin from PPARδ transgenic mice maintained in the absence (left) or presence (right) of GW. Magnification 200×. (5h) Induction of skin disease by topical application of either 0.3% of indole-3-carbinole (I3C, left) or I3C plus 0.3% GW501516 once daily to shaved abdominal skin. Gross macroscopic phenotype (top) and H&E histology of treated skin (bottom) was documented 10 days after beginning of treatment; and
Mice were generated which are inducible to overexpress human PPARδ in the skin and a wide range of other tissues and organs, including the spleen, under the control of the CYP1A1 promoter. The CYP1A1 dioxin-responsive promoter was initially chosen because it is known to be transactivated by the aryl hydrocarbon receptor (AHR) upon binding of specific AHR agonist ligands. (Campbell et al., Regulation of the CYP1A1 promoter in transgenic mice: an exquisitely sensitive on-off system for cell specific gene regulation, J. Cell Science, 1996, 109 (Pt. 11), 2619-2625).
The mice were generated by cloning full-length human PPARδ downstream of the human CYP1A1 promoter. Plasmids encoding human PPARδ were prepared by the following protocol. The coding sequences of PPARδ, were amplified using primers PRMG15 (5′-[…]-3′) and PR MG3 (5′-[…]-3′), respectively (XbaI-sites underlined, ATG start codon in bold). The PCR products were cleaved with XbaI and cloned in plasmid pUHD10-3 (M. Gossen, unpublished, Genbank accession number U89931) creating pMGD7 (PPARδ). The integrity of the inserts were confirmed by sequencing and cleaved out using BamHI and ligated into plasmid pAHIR1-β-gal (Campbell, 1996} cleaved with BglII, resulting in the plasmid pMGD72 (PPARδ). The proper orientations of the inserts were confirmed by restriction endonuclease analysis and sequencing. Transgenic mice were generated by microinjection of the expression unit (NotI fragment) of the plasmid pMGD72 into pro-nuclei of C57BL/J6×CBA F1 fertilized eggs. Mice were maintained under standard animal house conditions.
In a first study, indole-3-carbinole (I3C) introduced into the chow at a final concentration of 0.5% (w/w), for one week, was used to induce expression of PPARδ. The resulting translated protein was conformationally activated by the specific PPARδ ligand GW-501516 (2-Methyl-4-((4-methyl-2-(4-trifluoromethylphenyl)-1,3-thiazol-5-yl)-methylsulfanyl)phenoxy-acetic acid), added in powdered form to the chow at a concentration of 0.003% (w/w) for an additional 16 days. This activation mechanism is illustrated in FIG. 1. Thus, PPARδ can be transcriptionally activated and conformationally activated by concurrent feeding with I3C and GW-501516.

[3] = system: unmodified mice; assay: Control experiments in unmodified mice; type: in vivo, mouse; settings: GW-501516 administered to unmodified mice
Procedure: The mice were prepared for the purposes of studies concerning a wide range of cancer phenotypes and liver fat accumulation.

[4] = cited from earlier work

PPARδ expression in skin [1]: inducible | PPARδ expression in skin and lymph nodes [1]: strong induction of PPARδ expression
SMILES: OCc1c[nH]c2ccccc12 [I3C, indole-3-carbinole]
skin changes ([2]; prolonged chow with I3C 0.5% w/w, in the absence of PPARδ activation): caused no skin changes | skin phenotype ([2]; topical I3C alone to the skin): unable to elicit a phenotype

SMILES: Cc1cc(SCc2sc(-c3ccc(C(F)(F)F)cc3)nc2C)ccc1OCC(=O)O [GW-501516, 2-Methyl-4-((4-methyl-2-(4-trifluoromethylphenyl)-1,3-thiazol-5-yl)-methylsulfanyl)phenoxy-acetic acid]
PPARδ expression in the epidermis [1]: strong expression of PPARδ in the epidermis | psoriatic symptoms [3]: no psoriatic symptoms were observed | skin phenotype (scaling, erythema, skin thickening) ([2]; GW501516 alone, without I3C, as early as seven days after initiation): scaling, erythema formation, and skin thickening was notable in all PPARδ transgenic mice | skin phenotype (scaling, skin thickening, inflammation) ([2]; PPARδ induced by I3C feeding (0.5% w/w chow), activated by GW-501516 0.003% w/w in chow, after 25 days): a dramatic skin phenotype was observed | skin phenotype ([2]; topical I3C plus additional topical GW501516 (0.3% each, once daily, 10 days)): effectively replicated

SMILES: COC(=O)c1sccc1S(=O)(=O)Nc1ccc(Nc2ccccc2)cc1OC [GSK 0660, methyl 3-({[2-(methoxy)-4-phenyl]amino}sulfonyl)-2-thiophenecarboxylate]
in vivo bioavailability [4]: lacks in vivo bioavailability
